Legend:
RIG-I [1] = target: T1, RIG-I (Homo sapiens, UniProt O95786); experiment: ADP-Glo ATPase assay; type: biochemical; design: The native, full-length protein was expressed and purified using methods adapted from published protocols; SUMO (pET-SUMO vector; captured on Ni-NTA) (N, cleaved yes); made in house; host or cells: Rosetta II(DE3) Escherichia coli; conditions: Poly I:C RNA activation, read-out: apparent IC50, RIG-I ATPase inhibition
T1 sequence (O95786 1-925): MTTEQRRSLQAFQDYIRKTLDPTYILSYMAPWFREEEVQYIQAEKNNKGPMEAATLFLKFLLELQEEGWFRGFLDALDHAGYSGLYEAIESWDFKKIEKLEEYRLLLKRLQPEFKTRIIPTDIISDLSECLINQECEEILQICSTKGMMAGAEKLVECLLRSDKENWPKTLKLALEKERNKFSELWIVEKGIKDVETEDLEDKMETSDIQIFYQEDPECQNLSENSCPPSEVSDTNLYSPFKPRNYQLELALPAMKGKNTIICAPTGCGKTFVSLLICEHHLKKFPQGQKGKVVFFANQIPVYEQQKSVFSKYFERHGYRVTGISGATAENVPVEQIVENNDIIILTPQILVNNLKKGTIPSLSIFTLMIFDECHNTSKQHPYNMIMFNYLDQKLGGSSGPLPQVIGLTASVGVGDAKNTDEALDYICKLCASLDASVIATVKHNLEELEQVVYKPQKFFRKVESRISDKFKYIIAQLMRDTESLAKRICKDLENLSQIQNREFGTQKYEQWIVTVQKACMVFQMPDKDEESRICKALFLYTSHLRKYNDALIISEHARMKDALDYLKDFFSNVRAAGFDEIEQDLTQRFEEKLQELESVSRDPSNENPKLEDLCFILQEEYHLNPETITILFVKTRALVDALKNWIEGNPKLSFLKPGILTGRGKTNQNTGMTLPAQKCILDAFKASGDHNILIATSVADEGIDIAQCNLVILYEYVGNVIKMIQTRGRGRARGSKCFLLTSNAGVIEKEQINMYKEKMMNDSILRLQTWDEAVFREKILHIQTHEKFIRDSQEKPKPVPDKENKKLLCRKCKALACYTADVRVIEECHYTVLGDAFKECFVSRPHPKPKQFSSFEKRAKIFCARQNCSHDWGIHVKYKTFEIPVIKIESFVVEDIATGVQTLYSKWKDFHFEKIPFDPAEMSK
Method: For the ADP-Glo assay system (V9101, Promega), RIG-I protein was diluted to 10 nM in assay buffer (25 mM MOPS pH 7.4, 150 mM NaCl, 2 mM DTT, and 2 mM Mg^2). For HTS experiments, Poly I:C RNA was used for RIG-I activation, and added to a final concentration of 0.4 μg/ml. To initiate the ATPase reactions, ATP was added to a final concentration of 200 μM. To test compounds, a 12-point serial dilution of the small molecule of interest was combined with DMSO, keeping the DMSO levels at a constant 1% throughout the entire drug dilution. Final drug concentrations ranged from 0 to 200 μM. The final volume for reaction was 20 μL per well, measured in a Corning 384-well plate (Plate ID: 3658). Reactions were allowed to proceed at room temperature for one hour, after which 2.5 μL of the ADP-Glo Reagent was added to each well. Samples were incubated at 25° C. for 45 min to terminate the ATPase reaction and deplete the remaining ATP. Next, 5 μL of Kinase Detection Reagent was added to each well in order to convert the ADP product back to ATP, which is then used as a substrate for the luminescent reporter, which was read on a Biotek Synergy HI Plate Reader.
Slopes from the twelve point curves were fit to a non-competitive, four variable inhibition curve in order to obtain IC50 values:
where X is Log10 [compound], Y is luminescence, Top and Bottom are the plateaus at Ymin and Ymax. […]

RIG-I [2] = target: T1, RIG-I; experiment: NADH-coupled ATPase assay; type: biochemical; design: The native, full-length protein was expressed and purified using methods adapted from published protocols; SUMO (pET-SUMO vector; captured on Ni-NTA) (N, cleaved yes); made in house; host or cells: Rosetta II(DE3) Escherichia coli; conditions: for IC50: NADH-coupled ATPase assay; for RIG-I ATPase inhibition, result in words: SAR discussion of Table 1 compounds
Method: In this case, RIG-I was activated by a well-defined synthetic RNA hairpin duplex (SLR10-OH), which was added to a final concentration of 250 nM. A coupled assay mixture consisting of 1 mM NADH, 100 U/ml lactic dehydrogenase, 500 U/ml pyruvate kinase, 2.5 mM phosphoenol pyruvic acid was added to the sample. A 12-point serial dilution of the compound of interest was added in a DMSO vehicle such that DMSO concentrations were kept at a constant 2% over the entire drug dilution. The final concentration ranges for drug dilutions varied from compound to compound based on the potency of the small molecule in question. The dilutions covered ranges from 0 to as high as 100 μM (see association figures). Samples were incubated for at least 1 hour at RT. Reactions were initiated by the addition of a 1:1 ATP/MgCl2 mix to a final concentration of 5 mM.
The rate of ATP hydrolysis was determined indirectly by monitoring the conversion of NADH to NAD^+ that results in a loss of sample absorbance at 340 nm. Absorbance was measured over a 20 min time course using a sweeping read at 10 second intervals and a gain setting of 120 on a Biotek Synergy H1 Plate Reader. Mean kobs values were extrapolated for each time course and plotted against drug concentration, then fit to Eq. (1) to determine IC50 values. Each point was a based on two trials of three biological replicates with error bars representing the Standard deviation.

RIG-I [3] = target: T1, RIG-I; experiment: IFN-β/Firefly dual-luciferase reporter assay in HEK 293T cells transfected with hRIG-I; type: cell-based; conditions: HEK293T cells, SLR14 challenge
Method: Two different assays were used for evaluating RIG-I inhibition in cells. In the first assay, HEK 293T cells were used to test the influence of compounds on RIG-I signaling activity while simultaneously reporting on relative toxicity. In this case, inhibitor compounds were introduced via growth media replacement rather than by direct addition to cell plates. Specifically, HEK 293T cells (which express RIG-I only under the control of a transfected plasmid) were grown and maintained in T75 flasks containing Dulbecco's Modified Eagle Medium, DMEM (Life Technologies) supplemented with 10% heat-inactivated fetal bovine serum (Hyclone) and non-essential amino acids (Life Technologies). For the IFN-β induction assays, 0.5 ml of cells at 65,000 cells/ml was placed (seeded) in 24-well plates. After 24 h, each well of cells was transfected with 5 ng WT pUNO-hRIG-I (Invivogen), 6 ng pRL-TK constitutive Renilla luciferase reporter plasmid (Promega) and 150 ng of an IFN-β/Firefly luciferase reporter plasmid using the Lipofectamine 2000 transfection reagent (Life Technologies) following the manufacturer's protocol. Protein expression was allowed to proceed for 24 hours. In parallel, a six-point dilution series of each compound of interest was made in a DMSO vehicle and then diluted further into DMEM such that a constant DMSO concentration of 1% is maintained over the entire drug dilution. The DMEM growth media was aspirated from each well of cells and replaced with DMEM that contains the drug. After 30 minutes, the cells were challenged by transfection with 1 μg of the synthetic stem-loop RNA (SLR14) in Lipofectamine 2000. After 5-6 hours, cells were harvested for luminescence analysis in the following manner: Growth media was aspirated from each well, and 100 μl of passive lysis buffer (Promega) was added. Lysis proceeded for 15 min at room temperature. Lysates were clarified by centrifugation, and 20 μl samples of the supernatant were transferred to a 96-well assay plate for analysis using the Dual-Luciferase Reporter Assay System (Promega). Luminescence was measured using a Biotek Synergy H1 plate reader. The resulting Firefly luciferase activity (i.e. the induction of IFN-0) was normalized to the activity of the constitutively expressed Renilla luciferase to account for differences in confluency, transfection efficiency and cell viability across sample wells.

[4] = SLR10-OH activated, mean ± standard deviation, 3 measurements, read-out: IC50

| SMILES | IC50 (RIG-I [2]; [4]) [nM] | other results |
| --- | --- | --- |
| CC1(C)C(=O)N=C2C1=C(O)C(=O)c1ccccc12 [RIG001, 4-Hydroxy-3,3-dimethyl-2H1,3H,5H1-benzo[g]indole-2,5-dione] |  | IC50 (RIG-I [1]): 19000 ± 3000 nM; IC50 (RIG-I [2]; read-out: IC50 value in the coupled assay system): 12000 ± 1000 nM |
| COC1=C2C(=NC(=O)C2(C)C)c2ccccc2C1=O [RIG002, 4-Methoxy-3,3-dimethyl-2H,3H,5H-benzo[g]indole-2,5-dione] | 6300 ± 600 |  |
| COc1c2c(c3ccccc3c1OC)N(C)C(=O)C2(C)C [RIG003, 4,5-Dimethoxy-1,3,3-trimethyl-1H,2H,3H-benzo[g]indol-2-one] |  | inhibition of RIG-I signaling / IFN induction, result in words (RIG-I [3]): did not influence levels of IFN induction or RIG-I response |
| COc1c2c(c3ccccc3c1OC)NC(=O)C2(C)C [RIG004, 4,5-Dimethoxy-3,3-dimethyl-1H,2H,3H-benzo[g]indol-2-one] |  | RIG-I ATPase inhibition, result in words (RIG-I [2]): loss of function |
| CC1(C)C(=O)N=C2C1=C(OCc1ccccc1)C(=O)c1ccccc12 [RIG005, 4-Benzyloxy-3,3-dimethyl-2H,3H,5H-benzo[g]indole-2,5-dione] | 2600 ± 200 |  |
| CC(C)COC1=C2C(=NC(=O)C2(C)C)c2ccccc2C1=O [RIG006, 4-(2,2-Dimethylethoxy)-3,3-dimethyl-2H,3H,5H-benzo[g]indole-2,5-dione] | 2100 ± 200 |  |
| CCOC1=C2C(=NC(=O)C2(C)C)c2ccccc2C1=O [RIG007, 4-Ethoxy-3,3-dimethyl-2H,3H,5H-benzo[g]indole-2,5-dione] | 1800 ± 100 |  |
| CC1(C)C(=O)N=C2C1=C(OCc1nc3ccccc3[nH]1)C(=O)c1ccccc12 [RIG008, 4-(1H-1,3-Benzodiazol-2-ylmethoxy)-3,3-dimethyl-2H,3H,5H-benzo[g]indole-2,5-dione] | 1800 ± 300 |  |
| O=C1C(O)=C2C(=NC(=O)C23CCCCC3)c2ccccc21 [RIG009, 4-Hydroxy-2,5-dihydrospiro[benzo[g]indole-3,1′-cyclohexane]-2,5-dione] | 2400 ± 300 |  |
| O=C1C(OCc2ccccc2)=C2C(=NC(=O)C23CCCCC3)c2ccccc21 [RIG010, 4-(Benzyloxy)-2,5-dihydrospiro[benzo[g]indole-3,1′-cyclohexane]-2,5-dione] | 4700 ± 300 |  |
| CCC1(CC)C(=O)N=C2C1=C(O)C(=O)c1ccccc12 [RIG011, 3,3-Diethyl-4-hydroxy-2H,3H,5H-benzo[g]indole-2,5-dione] | 890 ± 40 | RIG-I ATPase inhibition, result in words (RIG-I [2]): nanomolar IC50 values |
| CC1(C)C(=O)N=C2C1=C(OCc1ccc3ccccc3c1)C(=O)c1ccccc12 [RIG013, 3,3-Dimethyl-4-(naphthalen-2-ylmethoxy)-2H,3H,5H-benzo[g]indole-2,5-dione] | 2100 ± 200 | IC50 (RIG-I [3]; compound in growth medium, read-out: IC50, inhibition of RIG-I signaling (IFN induction luciferase)): 1360 nM |

Reference: patent US20220395487A1, “RIG-I INNATE IMMUNE RECEPTOR ANTAGONISTS AND METHODS OF USING SAME” (YALE UNIVERSITY, priority 2019, published 2022)
